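Tested at 5 concentrations; 48 h exposure; 96-well plates; endpoints linearly interpolated, else capped at highest concentration. The concentration for 50% growth inhibition is given as GI50. TGI: total growth inhibition.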
Legend:
Experiment in all cases: growth of human tumour cells (NCI), 48 h
RPMI-8226 leukemia = tested on: RPMI-8226 leukemia
OVCAR-8 ovarian = tested on: OVCAR-8 ovarian
MALME-3M melanoma = tested on: MALME-3M melanoma
A549 NSCLC = tested on: A549 NSCLC
SNB-75 CNS = tested on: SNB-75 CNS
UO-31 renal = tested on: UO-31 renal
OVCAR-5 ovarian = tested on: OVCAR-5 ovarian
SK-MEL-28 melanoma = tested on: SK-MEL-28 melanoma
SK-MEL-5 melanoma = tested on: SK-MEL-5 melanoma

Structure (SMILES)	TGI (RPMI-8226 leukemia) [µM]	TGI (OVCAR-8 ovarian) [µM]	TGI (MALME-3M melanoma) [µM]	TGI (A549 NSCLC) [µM]	TGI (SNB-75 CNS) [µM]	TGI (UO-31 renal) [µM]	TGI (OVCAR-5 ovarian) [µM]	TGI (SK-MEL-28 melanoma) [µM]	TGI (SK-MEL-5 melanoma) [µM]	GI50 (OVCAR-5 ovarian) [nM]	GI50 (RPMI-8226 leukemia) [nM]	GI50 (OVCAR-8 ovarian) [nM]	GI50 (MALME-3M melanoma) [nM]	GI50 (A549 NSCLC) [nM]	GI50 (SNB-75 CNS) [nM]	GI50 (UO-31 renal) [nM]	GI50 (SK-MEL-28 melanoma) [nM]	GI50 (SK-MEL-5 melanoma) [nM]
CC(C)=CCC/C(C)=C/COC(C)(C)C1=CCC(C)CC1 (configuration not stated) (tested in a mixture with another compound)	> 100	> 100	> 100	> 100	> 100	> 100	> 100	> 100	> 100	–	–	–	–	–	–	–	–	–
Cc1cc(-c2nc3ccccc3s2)ccc1NC(=O)[C@@H](N)CCCCN	–	17.1	34.8	12.7	13	19.3	25.7	31.3	28	–	–	–	–	–	–	–	–	–
Nc1ccc(-c2nc3ccccc3s2)cc1C(F)(F)F	44.6	43.1	29.4	37.4	27.9	29.4	32.2	33.9	30.6	17500	–	–	–	–	–	–	–	–
O=C(O)c1cc(-c2ccc3c(O)c(O)ccc3c2)ccc1O	49.1	> 75	> 75	> 75	> 75	> 75	26.2	> 75	> 75	–	–	–	–	–	–	–	–	–
c1csc(-c2ccc(-c3cccs3)c3nsnc23)c1	> 82.4	> 93.2	> 55.8	> 100	> 100	> 100	> 100	> 54.2	> 55.5	–	–	–	–	–	–	–	–	–
CC(C)(C)OC(=O)NCCC(N)=S	> 100	> 100	> 100	> 100	> 100	> 100	> 100	> 100	> 100	–	–	–	–	–	–	–	–	–
CC1=C2C(=C[C@H]3[C@]4(C)CCCC(C)(C)[C@H]4CC[C@]34O[C@H]24)OC1=O	> 100	–	> 100	> 100	> 100	> 100	> 100	> 100	> 100	–	–	–	–	–	–	–	–	–
N#CC(N=Nc1ccc(Cl)cc1)c1nc2ccccc2o1 (configuration not stated)	> 100	> 100	> 100	> 100	–	> 100	> 100	> 100	> 100	–	–	–	–	–	–	–	–	–
COC(=O)CN1c2nc(C#N)c(C#N)nc2N(CC(=O)OC)c2nc(C#N)c(C#N)nc21	> 100	> 22.3	3.01	> 82.8	30.4	> 25.6	22.6	> 100	> 53.8	–	–	–	–	–	–	–	–	–
Cc1cn(-c2cc(C(=O)Nc3cccc(-n4ccc5c(NC(=O)c6ccccc6)nccc54)c3)cc(C(F)(F)F)c2)cn1	4.02	2.99	9.66	5.34	3.27	14.9	14.6	5.41	0.76	802	426	419	502	502	252	1100	546	195
COC(C)(C)[C@@H](O)[C@H]1C[C@H](C)[C@@]2(CC[C@]3(C)[C@@H]2CC[C@@H]2[C@@]4(C)CC[C@@H](OC(C)=O)C(C)(C)[C@@H]4C[C@@H](OC4OC(COC(C)=O)C(O)C(O)C4O)[C@]23C)O1 (some centres not stated)	5.7	18.7	23.4	15.3	16.5	15.5	7.18	20.4	15.1	–	–	–	–	–	–	–	–	–
CCOC(CNCCC(=O)OC)OCC	> 10	> 10	> 10	> 10	> 10	> 10	–	> 10	> 10	–	–	–	–	–	–	–	–	–
CCc1c[n+]([O-])c(C)cc1[N+](=O)[O-]	> 100	> 100	97.3	> 100	> 100	> 100	> 100	> 100	> 100	–	–	–	–	–	–	–	–	–
C=C1c2cc3c(cc2CC12Cc1cc4c(cc1C2=O)CCC4)CCC3 (configuration not stated)	> 100	> 100	> 100	> 100	> 100	> 100	> 100	> 100	> 100	–	–	–	–	–	–	–	–	–
O=C1CC(C(O)(C(F)(F)F)C(F)(F)Cl)CCC1C(O)(C(F)(F)F)C(F)(F)Cl (configuration not stated)	> 10	> 10	> 10	> 10	> 10	–	> 10	> 10	> 10	–	–	–	–	–	–	–	–	–
O=[N+]([O-])c1ccc(/C=C/c2cc(-c3ccccc3)nc3ccc4ccccc4c23)cc1	> 100	> 100	> 100	> 100	> 100	> 100	> 100	> 100	> 100	–	–	–	–	–	–	–	–	–
S=C(/N=c1\sc(Nc2ccc(Cl)cc2)nc2sc3c(c12)CCN(N1CCc2c(sc4nc(Nc5ccc(Cl)cc5)s/c(=N\C(=S)Nc5ccc(Cl)cc5)c24)C1)C3)Nc1ccc(Cl)cc1	–	> 100	> 100	> 100	64.5	> 100	54.2	> 100	–	–	–	–	–	–	–	–	–	–
CCOC(=O)c1c(-c2ccccc2)c(-c2ccccc2)cn1C	–	> 10	> 10	> 10	> 10	> 10	> 10	–	–	–	–	–	–	–	–	–	–	–
Clc1ccc(CSCCc2ccncc2)cc1Cl	40.3	46	42.4	96.2	77.6	56.9	66.8	50.8	29.9	–	–	–	–	–	–	–	–	–
CCOC(=O)C(Cl)(Cl)/S(=N\S(=O)(=O)c1ccccc1)NC(=O)c1ccccc1 (configuration not stated)	> 100	> 100	> 100	> 100	> 100	> 100	> 100	> 100	> 100	–	–	–	–	–	–	–	–	–
NNC1=N/C(=C\c2ccco2)C(Cl)=N1	41.8	> 100	> 100	> 100	> 100	> 100	> 100	> 100	> 100	–	–	–	–	–	–	–	–	–
S=c1[nH]c2ccc(Br)cc2c(=S)s1	95.4	> 100	> 100	> 100	93	53.5	60.4	> 100	37.8	–	–	–	–	–	–	–	–	–
N#CCc1nc(-c2ccccc2)n[nH]1	–	> 100	> 100	> 100	> 100	> 100	> 100	–	> 100	–	–	–	–	–	–	–	–	–

Structure (SMILES)	TGI (RPMI-8226 leukemia) [µM]	TGI (OVCAR-8 ovarian) [µM]	TGI (MALME-3M melanoma) [µM]	TGI (A549 NSCLC) [µM]	TGI (SNB-75 CNS) [µM]	TGI (UO-31 renal) [µM]	TGI (OVCAR-5 ovarian) [µM]	TGI (SK-MEL-28 melanoma) [µM]	TGI (SK-MEL-5 melanoma) [µM]	GI50 (OVCAR-5 ovarian) [nM]	GI50 (RPMI-8226 leukemia) [nM]	GI50 (OVCAR-8 ovarian) [nM]	GI50 (MALME-3M melanoma) [nM]	GI50 (A549 NSCLC) [nM]	GI50 (SNB-75 CNS) [nM]	GI50 (UO-31 renal) [nM]	GI50 (SK-MEL-28 melanoma) [nM]	GI50 (SK-MEL-5 melanoma) [nM]
Oc1[nH]c2ccc(Br)cc2c1N=NC(=S)Nc1ccc(F)cc1	–	19.9	23.8	–	30	–	> 100	39.8	24.7	–	–	–	–	–	–	–	–	–
CC(=O)Oc1cc(C(F)(F)F)ccc1C(=O)OC1(C)OC(=O)c2ccc(C(F)(F)F)cc2O1 (configuration not stated)	–	> 100	> 100	> 100	> 100	> 100	> 100	> 100	–	–	–	–	–	–	–	–	–	–
O=C(O)C(SC1=NNC2(C(=O)N1)c1ccccc1-c1ccccc12)SC1=NNC2(C(=O)N1)c1ccccc1-c1ccccc12	> 10	> 10	> 10	> 10	> 10	> 10	> 10	> 10	> 10	–	–	–	–	–	–	–	–	–
COc1ccc(S(=O)(=O)N2C(=O)CCC2C(=O)NN)cc1 (configuration not stated)	> 100	> 100	> 100	> 100	> 100	> 100	> 100	> 100	> 100	–	–	–	–	–	–	–	–	–
CCCCn1cnc2c(c(CC#N)nn2-c2ccccc2)c1=N	73.4	> 100	> 100	> 100	> 100	> 100	> 100	> 100	46.7	–	–	–	–	–	–	–	–	–
CN(Cc1ccccc1)c1cc(=O)n(C)c(=O)[nH]1	> 100	> 100	> 100	> 100	–	> 100	> 100	> 100	> 100	–	–	–	–	–	–	–	–	–
O=C(Cc1ccccc1)NN1C(=O)/C(=C\c2ccccc2)SC1=Nc1ccccc1	–	> 100	–	> 100	> 100	> 100	> 100	> 100	> 100	–	–	–	–	–	–	–	–	–
CC(=O)O[C@H]1C(=O)[C@@]2(C)[C@H]([C@H](OC(=O)c3ccc(F)cc3)[C@]3(O)C[C@H](OC(=O)[C@H](O)[C@@H](NC(=O)c4ccccc4)c4ccccc4)C(C)=C1C3(C)C)[C@]1(OC(C)=O)CO[C@@H]1C[C@@H]2O	0.0195	–	> 25	> 25	0.659	> 25	> 11.5	> 25	> 9.33	–	–	–	–	–	–	–	–	–
O=C(Nc1ccccc1F)c1cc2ccc(O)cc2oc1=Nc1ccccc1F	7.84	3.36	3.44	5.89	–	3.56	15.3	5.8	3.85	–	–	–	–	–	–	–	–	–
Cc1ccc([N+](=O)[O-])cc1N=NC(=O)NNc1cc([N+](=O)[O-])ccc1C	> 100	70	> 100	–	66.2	78.9	> 100	87.5	34.9	–	–	–	–	–	–	–	–	–
Cc1c(N2C(=O)C(Cl)C2c2ccc(Cl)cc2)c(=O)n(-c2ccccc2)n1C (configuration not stated)	42.6	> 100	> 100	> 100	–	> 100	> 100	–	> 100	–	–	–	–	–	–	–	–	–
COc1ccc(-c2c3c([nH]c(=S)c2C#N)CC(C)(C)CC3=O)cc1	> 100	> 100	> 100	> 100	–	> 100	> 100	> 100	> 100	–	–	–	–	–	–	–	–	–
CC1(C)C2CC(=O)C1(C)C(O)C2Br (configuration not stated)	–	> 100	> 100	> 100	–	> 100	> 100	> 100	> 100	–	–	–	–	–	–	–	–	–
O=C(NCCCN(CCCCN(CCCNC(=O)C(F)(F)F)Cc1ccc2ccccc2c1)Cc1ccc2ccccc2c1)C(F)(F)F	7.15	> 100	–	> 100	> 100	> 100	> 100	5.88	3.38	–	–	–	–	–	–	–	–	–
Cc1cc2c([N+](=O)[O-])cc3c(c2o1)C(=O)C=CC3=O	> 100	> 55.7	–	37.2	> 61.5	3.62	35.1	> 20.8	28.1	–	–	–	–	–	–	–	–	–
O=C(NC(COC(=O)C(Cc1ccccc1)NC(=O)c1ccccc1)Cc1ccccc1)c1ccccc1 (configuration not stated)	> 50	> 50	> 50	> 50	> 50	> 50	> 50	> 50	–	–	–	–	–	–	–	–	–	–
Nc1nc(Cl)cc(NCC2(CO)CCC(CCc3ccccc3)C2)n1 (configuration not stated)	–	44	33.3	32	39.4	33.3	33.1	37.3	15.6	–	–	–	–	–	–	–	–	–
N=C(N)c1ccc(-c2ccc(-c3cccs3)s2)cc1	2.12	4.79	3.23	–	3.17	2.48	2.68	3.07	2.99	1170	267	1790	1690	–	1690	978	1630	1600
O=C(CNc1c(Cl)cccc1Cl)NC1C=Cc2ccc(S(=O)(=O)Nc3c(Cl)cccc3Cl)cc2C1=O (configuration not stated)	> 100	> 100	> 100	> 100	> 100	> 100	> 100	> 100	–	–	–	–	–	–	–	–	–	–
CCOC(=O)C1(C(=O)OCC)COS(=O)OC1	–	> 100	–	> 100	> 100	> 100	–	95.7	> 100	–	–	–	–	–	–	–	–	–
NC(CC1=CS(=O)(=O)c2ccc(Cl)cc21)C(=O)O (configuration not stated)	> 100	> 100	> 100	> 100	> 100	–	> 100	> 100	> 100	–	–	–	–	–	–	–	–	–
COc1cc2cc(Oc3ccc(NC(=O)c4cc(C(F)(F)F)cc(C(F)(F)F)c4)cc3)c(C)nc2cc1OC	> 50	–	> 50	> 50	> 50	> 50	> 50	> 50	> 50	> 50000	1570	–	> 50000	3080	41500	2600	> 50000	2760

— PubChem BioAssay (NCI)
